Patent US9078871B2, “Estrogen receptor modulators and uses thereof” (SERAGON PHARMACEUTICALS, INC., priority 2010, dated 2015)

What was measured:
[1] = molecular target: T1, ER-α (Homo sapiens, UniProt P03372); test: ER-α in Cell Western Assay (SP1); assay type: cell-based; conditions: MCF-7 cells, SP1 rabbit monoclonal Ab, 4 or 24 hr post compound addition, read-out: ER In-Cell Western Assay (SP1); for Emax: MCF7, Max Response; for DC50: IC50
T1 construct: endogenous in cells; host or cells: MCF-7
T1 sequence (P03372 1-595): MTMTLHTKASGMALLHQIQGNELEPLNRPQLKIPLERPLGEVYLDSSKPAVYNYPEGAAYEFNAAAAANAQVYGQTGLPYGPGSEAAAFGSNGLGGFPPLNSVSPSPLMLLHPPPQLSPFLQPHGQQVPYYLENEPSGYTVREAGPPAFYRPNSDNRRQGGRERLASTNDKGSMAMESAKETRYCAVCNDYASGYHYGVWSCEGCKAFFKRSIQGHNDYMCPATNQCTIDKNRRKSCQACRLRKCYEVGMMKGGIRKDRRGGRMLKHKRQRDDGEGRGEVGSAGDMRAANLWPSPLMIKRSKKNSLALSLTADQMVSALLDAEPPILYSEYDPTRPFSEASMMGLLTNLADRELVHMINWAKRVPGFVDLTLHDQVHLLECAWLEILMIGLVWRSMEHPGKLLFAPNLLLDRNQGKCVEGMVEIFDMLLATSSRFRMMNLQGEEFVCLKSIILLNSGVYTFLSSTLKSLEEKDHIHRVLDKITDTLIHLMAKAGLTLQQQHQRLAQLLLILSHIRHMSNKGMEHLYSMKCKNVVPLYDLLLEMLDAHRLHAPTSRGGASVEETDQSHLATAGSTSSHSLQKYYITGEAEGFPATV
Experimental: MCF-7 cells were adjusted to a concentration of 200,000 cells per mL in RPMI containing 10% charcoal-stripped FBS and 20 mM HEPES. 16 microliters of the cell suspension (3200 cells) was added to each well of a poly-D-lysine 384 well plate, and the cells were incubated overnight to allow the cells to adhere. The following day an eleven point, serial semilog dilution of each compound was added to the cells in 16 μL at a final concentration ranging from 0.3-0.000003 μM. At 4 or 24 hr post compound addition, the cells were fixed (10% formalin in PBS) for 20 minutes. Cells were permeabalized in PBS 0.1% Triton and blocked with LICOR blocking buffer (50 μl/well, 90′). The wells were then incubated overnight at 4° C. with SP1 rabbit monoclonal Ab (Thermo Scientific) diluted 1:1000 in LICOR blocking buffer/0.1% Tween-20. Wells which were treated with blocking buffer with Tween but no antibody were used as a background control. Wells were washed with 0.1% Tween-20/PBS and then incubated in goat anti-rabbit IRDye™ 800CW (LICOR Inc.; 1:1000) and DRAQ5 DNA dye (1:2000 for 2 mM stock) diluted in LICOR blocking buffer containing 0.1% Tween-20 and 0.01% SDS for 60 minutes. Cells were washed (50 μl/well, 5′ each) in 0.1% Tween-20/PBS. Plates were scanned on a LICOR Odyssey infrared imaging system. Integrated intensities in the 800 nm channel and 700 nm channel were measured to determine levels of ER and DNA respectively. Percent ER levels were determined as follows: (Integrated intensity 800 nm sample/integrated intensity 700 nm sample)/(Integrated intensity 800 nm untreated cells/integrated intensity 700 nm untreated cells)×100=% ER levels.

[2] = test system: MCF-7 cells; test: Breast Cancer Cell Viability Assay (MCF7 Viability Assay); assay type: cell-based; conditions: 5 days' compound exposure, CellTiter-Glo; for IC50: Homo sapiens, MCF7, 120 h
Experimental: MCF-7 cells were adjusted to a concentration of 20,000 cells per mL in RPMI containing 10% FBS and 20 mM HEPES. 16 microliters of the cell suspension (320 cells) was added to each well of a 384 well plate, and the cells were incubated overnight to allow the cells to adhere. The following day an eleven point, serial semilog dilution of each compound was added to the cells in 16 μL at a final concentration ranging from 0.3-0.000003 μM. After 5 days' compound exposure, 16 μL of CellTiter-GLo (Promega, Madison Wis.) was added to the cells the relative luminescence units (RLUs) of each well was determined. CellTiter-Glo added to 32 μL of medium without cells was used to obtain a background value. The Percent viability of each sample was determined as follows: (RLU sample-RLU background/RLU untreated cells-RLU background)×100=% viability.

| SMILES | Emax [1] [%] | DC50 [1] [nM] | IC50 [2] [nM] | MCF7 Viability Assay Max Response [2] |
| --- | --- | --- | --- | --- |
| CC1=C(c2ccc(F)cc2)[C@H](c2ccc(OC[C@H](C)N3CC[C@@H](C)C3)cc2)Oc2ccc(O)cc21 (single isomer, unassigned) [Example 30a] | 60 to 85 | ≤ 1 | ≤ 1 | ++ (++ = a single % value ≧50%) |
| CC1=C(c2ccc(F)cc2)[C@@H](c2ccc(OC[C@H](C)N3CC[C@@H](C)C3)cc2)Oc2ccc(O)cc21 (single isomer, unassigned) [Example 30b] | 60 to 85 | > 1 | > 1 | ++ (++ = a single % value ≧50%) |
| CC1=C(c2ccc(Cl)cc2)C(c2ccc(OC[C@H](C)N3CC[C@@H](C)C3)cc2)Oc2ccc(O)cc21 (stereo partly drawn) [Example 44, 3-(4-Chlorophenyl)-4-methyl-2-(4-((S)-2-((R)-3-methylpyrrolidin-1-yl)propoxy)phenyl)-2H-chromen-6-ol] | 60 to 85 | > 1 | > 1 | ++ (++ = a single % value ≧50%) |
| CC1=C(c2ccc(F)c(F)c2)C(c2ccc(OC[C@H](C)N3CC[C@@H](C)C3)cc2)Oc2ccc(O)cc21 (stereo partly drawn) [Example 46, 3-(3,4-Difluorophenyl)-4-methyl-2-(4-((S)-2-((R)-3-methylpyrrolidin-1-yl)propoxy)phenyl)-2H-chromen-6-ol] | 60 to 85 | > 1 | > 1 | ++ (++ = a single % value ≧50%) |
| CC1=C(c2cc(F)c(O)c(F)c2)C(c2ccc(OC[C@H](C)N3CC[C@@H](C)C3)cc2)Oc2ccc(O)cc21 (stereo partly drawn) [Example 47, 3-(3,5-Difluoro-4-hydroxyphenyl)-4-methyl-2-(4-((S)-2-((R)-3-methylpyrrolidin-1-yl)propoxy)phenyl)-2H-chromen-6-ol] | ≥ 85 | ≤ 1 | ≤ 1 | ++ (++ = a single % value ≧50%) |
| CC1=C(c2cc(O)c(F)c(F)c2)C(c2ccc(OC[C@H](C)N3CC[C@@H](C)C3)cc2)Oc2ccc(O)cc21 (stereo partly drawn) [Example 49, 3-(3,4-Difluoro-5-hydroxyphenyl)-4-methyl-2-(4-((S)-2-((R)-3-methylpyrrolidin-1-yl)propoxy)phenyl)-2H-chromen-6-ol] | ≥ 85 | ≤ 1 | ≤ 1 | ++ (++ = a single % value ≧50%) |
| CC1=C(c2cccc(O)c2)C(c2ccc(OC[C@H](C)n3cnc(C)c3)cc2)Oc2ccc(O)cc21 (stereo partly drawn) [Example 51, 3-(3-Hydroxyphenyl)-4-methyl-2-(4-((S)-2-(4-methyl-1H-imidazol-1-yl)propoxy)phenyl)-2H-chromen-6-ol] | 60 to 85 | ≤ 1 | ≤ 1 | ++ (++ = a single % value ≧50%) |
| CC1=C(c2cccc(O)c2)C(c2ccc(OC[C@H](C)N3CC[C@@H](C)C3)cc2)Oc2ccc(O)c(F)c21 (stereo partly drawn) [Example 61, 5-Fluoro-3-(3-hydroxyphenyl)-4-methyl-2-(4-((S)-2-((R)-3-methylpyrrolidin-1-yl)propoxy)phenyl)-2H-chromen-6-ol] | ≥ 85 | ≤ 1 | ≤ 1 | ++ (++ = a single % value ≧50%) |

Further lines, with some results ahead:

| Emax [1] [%] | DC50 [1] [nM] | IC50 [2] [nM] | SMILES | MCF7 Viability Assay Max Response [2] |
| --- | --- | --- | --- | --- |
| 60 to 85 | ≤ 1 | ≤ 1 | CC1=C(c2cccc(O)c2C)C(c2ccc(OC[C@H](C)N3CC[C@@H](C)C3)cc2)Oc2ccc(O)cc21 (stereo partly drawn) [Example 40, 3-(3-Hydroxy-2-methylphenyl)-4-methyl-2-(4-((S)-2-((R)-3-methylpyrrolidin-1-yl)propoxy)phenyl)-2H-chromen-6-ol] | ++ (++ = a single % value ≧50%) |
| 60 to 85 | ≤ 1 | ≤ 1 | CC1=C(c2ccc(O)cc2C)C(c2ccc(OC[C@H](C)N3CC[C@@H](C)C3)cc2)Oc2ccc(O)cc21 (stereo partly drawn) [Example 41, 3-(4-Hydroxy-2-methylphenyl)-4-methyl-2-(4-((S)-2-((R)-3-methylpyrrolidin-1-yl)propoxy)phenyl)-2H-chromen-6-ol] | ++ (++ = a single % value ≧50%) |
| ≥ 85 | ≤ 1 | ≤ 1 | CC1=C(c2ccc(O)c(C)c2)C(c2ccc(OC[C@H](C)N3CC[C@@H](C)C3)cc2)Oc2ccc(O)cc21 (stereo partly drawn) [Example 42, 3-(4-Hydroxy-3-methylphenyl)-4-methyl-2-(4-((S)-2-((R)-3-methylpyrrolidin-1-yl)propoxy)phenyl)-2H-chromen-6-ol] | ++ (++ = a single % value ≧50%) |
| ≥ 85 | ≤ 1 | ≤ 1 | CC1=C(c2cc(O)cc(F)c2)C(c2ccc(OC[C@H](C)N3CC[C@@H](C)C3)cc2)Oc2ccc(O)cc21 (stereo partly drawn) [Example 43, 3-(3-Fluoro-5-hydroxyphenyl)-4-methyl-2-(4-((S)-2-((R)-3-methylpyrrolidin-1-yl)propoxy)phenyl)-2H-chromen-6-ol] | ++ (++ = a single % value ≧50%) |
| ≥ 85 | ≤ 1 | ≤ 1 | CC1=C(c2ccc(O)cc2F)C(c2ccc(OC[C@H](C)N3CC[C@@H](C)C3)cc2)Oc2ccc(O)cc21 (stereo partly drawn) [Example 45, 3-(2-Fluoro-4-hydroxyphenyl)-4-methyl-2-(4-((S)-2-((R)-3-methylpyrrolidin-1-yl)propoxy)phenyl)-2H-chromen-6-ol] | ++ (++ = a single % value ≧50%) |
| ≥ 85 | ≤ 1 | > 1 | CC1=C(c2ccc(F)c(O)c2F)C(c2ccc(OC[C@H](C)N3CC[C@@H](C)C3)cc2)Oc2ccc(O)cc21 (stereo partly drawn) [Example 48, 3-(2,4-Difluoro-3-hydroxyphenyl)-4-methyl-2-(4-((S)-2-((R)-3-methylpyrrolidin-1-yl)propoxy)phenyl)-2H-chromen-6-ol] | ++ (++ = a single % value ≧50%) |
| 60 to 85 | ≤ 1 | ≤ 1 | CC1=C(c2ccc(F)cc2Cl)C(c2ccc(OC[C@H](C)N3CC[C@@H](C)C3)cc2)Oc2ccc(O)cc21 (stereo partly drawn) [Example 50, 3-(2-Chloro-4-fluorophenyl)-4-methyl-2-(4-((S)-2-((R)-3-methylpyrrolidin-1-yl)propoxy)phenyl)-2H-chromen-6-ol] | ++ (++ = a single % value ≧50%) |
| 60 to 85 | ≤ 1 | ≤ 1 | CC1=C(c2ccc(F)cc2F)C(c2ccc(OC[C@H](C)N3CC[C@@H](C)C3)cc2)Oc2ccc(O)cc21 (stereo partly drawn) [Example 52, 3-(2,4-Difluorophenyl)-4-methyl-2-(4-((S)-2-((R)-3-methylpyrrolidin-1-yl)propoxy)phenyl)-2H-chromen-6-ol] | ++ (++ = a single % value ≧50%) |
| ≥ 85 | ≤ 1 | ≤ 1 | CC1=C(c2cccc(O)c2F)C(c2ccc(OC[C@H](C)N3CC[C@@H](C)C3)cc2)Oc2ccc(O)cc21 (stereo partly drawn) [Example 60, 3-(2-Fluoro-3-hydroxyphenyl)-4-methyl-2-(4-((S)-2-((R)-3-methylpyrrolidin-1-yl)propoxy)phenyl)-2H-chromen-6-ol] | ++ (++ = a single % value ≧50%) |
